# In patent EP4667458A1 (Kanaph Therapeutics Inc., priority 2023, dated 2024):
# Where two headings read alike, the source gives them in different places.
# Target: T1, KRAS^G12C::SOS1 (Homo sapiens, UniProt Q07889)
# T1 sequence (Q07889 1-1333): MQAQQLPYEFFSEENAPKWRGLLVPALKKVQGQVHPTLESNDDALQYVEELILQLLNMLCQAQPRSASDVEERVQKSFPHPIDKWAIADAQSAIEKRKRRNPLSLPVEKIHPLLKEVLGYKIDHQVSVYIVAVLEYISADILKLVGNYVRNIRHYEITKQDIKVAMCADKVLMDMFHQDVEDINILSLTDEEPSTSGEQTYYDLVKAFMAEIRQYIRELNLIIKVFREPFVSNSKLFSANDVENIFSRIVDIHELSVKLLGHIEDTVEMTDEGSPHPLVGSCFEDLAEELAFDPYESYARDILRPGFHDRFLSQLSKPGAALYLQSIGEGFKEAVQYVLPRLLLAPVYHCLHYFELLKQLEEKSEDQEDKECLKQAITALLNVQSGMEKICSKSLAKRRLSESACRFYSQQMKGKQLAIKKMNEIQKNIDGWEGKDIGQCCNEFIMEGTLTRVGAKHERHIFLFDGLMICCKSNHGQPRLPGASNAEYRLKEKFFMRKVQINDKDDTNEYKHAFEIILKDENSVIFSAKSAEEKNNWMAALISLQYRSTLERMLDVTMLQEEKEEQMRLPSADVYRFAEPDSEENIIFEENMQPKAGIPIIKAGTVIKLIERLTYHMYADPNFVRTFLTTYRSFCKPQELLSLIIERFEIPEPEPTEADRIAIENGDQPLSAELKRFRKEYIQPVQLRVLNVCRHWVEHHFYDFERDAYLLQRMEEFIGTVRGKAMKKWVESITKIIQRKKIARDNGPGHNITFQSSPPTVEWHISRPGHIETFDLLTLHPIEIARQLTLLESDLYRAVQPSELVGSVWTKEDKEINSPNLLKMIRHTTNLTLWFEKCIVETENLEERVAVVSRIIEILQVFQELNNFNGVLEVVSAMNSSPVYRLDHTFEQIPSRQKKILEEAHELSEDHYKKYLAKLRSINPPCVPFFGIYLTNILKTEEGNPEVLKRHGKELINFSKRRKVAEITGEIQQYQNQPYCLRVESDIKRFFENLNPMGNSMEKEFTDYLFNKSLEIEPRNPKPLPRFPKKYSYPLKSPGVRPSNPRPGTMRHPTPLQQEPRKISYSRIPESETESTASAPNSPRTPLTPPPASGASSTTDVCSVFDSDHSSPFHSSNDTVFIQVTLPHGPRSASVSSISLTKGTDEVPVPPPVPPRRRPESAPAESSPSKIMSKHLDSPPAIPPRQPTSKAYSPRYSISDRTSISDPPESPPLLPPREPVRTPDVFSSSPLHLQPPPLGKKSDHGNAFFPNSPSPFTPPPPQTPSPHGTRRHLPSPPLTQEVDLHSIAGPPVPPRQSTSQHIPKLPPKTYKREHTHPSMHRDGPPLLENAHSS
# Experiment: KRAS G12C::SOS1 protein-protein interaction (PPI) inhibition assay (HTRF binding kit)
IC50,Molecule,"IC50 (read-out: KRAS ^G12C::SOS1 PPI assay (IC50 range, Grade), maximum concentration 3 µM, 8 concentrations, three replicates)"
< 1000 nM,"C[C@@H](NC(=O)c1ccc(=O)n(-c2cccc(CO)c2)n1)c1cc(N)cc(C(F)(F)F)c1 [Example 169, N-[(1R)-1-[3-amino-5-(trifluoromethyl)phenyl]ethyl]-1-[3-(hydroxymethyl)phenyl]-6-oxo-pyridazine-3-carboxamide]",–
< 1000 nM,"C[C@@H](NC(=O)c1ccc(=O)n(-c2ccccc2)n1)c1cccc(S(F)(F)(F)(F)F)c1 [Example 190, 6-oxo-N-[(1R)-1-[3-(pentafluoro-λ6-sulfanyl)phenyl]ethyl]-1-phenyl-pyridazine-3-carboxamide]",–
< 1000 nM,"COc1cnccc1-n1nc(C(=O)N[C@H](C)c2cc(N)cc(C(F)(F)F)c2)ccc1=O [Example 145, N-[(1R)-1-[3-amino-5-(trifluoromethyl)phenyl]ethyl]-1-(3-methoxy-4-pyridyl)-6-oxo-pyridazine-3-carboxamide]",–
< 1000 nM,"Cc1nnc(-c2cccc(-n3nc(C(=O)N[C@H](C)c4cc(N)cc(C(F)(F)F)c4)ccc3=O)c2)o1 [Example 319, N-[(1R)-1-[3-amino-5-(trifluoromethyl)phenyl]ethyl]-1-[3-(5-methyl-1,3,4-oxadiazol-2-yl)phenyl]-6-oxo-pyridazine-3-carboxamide]",–
< 1000 nM,CCn1cc(-n2nc(C(=O)N[C@H](C)c3ccc(-c4cc(Cl)ccc4CNC)s3)ccc2=O)cn1 [Example 405],–
< 1000 nM,"C[C@@H](NC(=O)c1ccc(=O)n(-c2cccc(-c3nnnn3C)c2)c1)c1cc(N)cc(C(F)(F)F)c1 [Example 349, N-[(1R)-1-[3-amino-5-(trifluoromethyl)phenyl]ethyl]-1-[3-(1-methyltetrazol-5-yl)phenyl]-6-oxo-pyridine-3-carboxamide]",–
< 1000 nM,"C[C@@H](NC(=O)c1ccc(=O)n(-c2cccc(-c3ccno3)c2)n1)c1cc(N)cc(C(F)(F)F)c1 [Example 342, N-[(1R)-1-[3-amino-5-(trifluoromethyl)phenyl]ethyl]-1-(3-isoxazol-5-ylphenyl)-6-oxo-pyridazine-3-carboxamide]",–
< 1000 nM,"C[C@@H](NC(=O)c1ccc(=O)n(-c2ccccc2F)n1)c1cccc(C#N)c1F [Example 260, N-[(1R)-1-(3-cyano-2-fluoro-phenyl)ethyl]-1-(2-fluorophenyl)-6-oxo-pyridazine-3-carboxamide]",–
< 1000 nM,"C[C@@H](NC(=O)c1ccc(=O)n(-c2cccnc2F)n1)c1ccc(-c2cc(F)ccc2CN(C)C)s1 [Example 403, N-[(1R)-1-(5-{2-[(dimethylamino)methyl]-5-fluorophenyl}thiophen-2-yl)ethyl]-1-(2-fluoropyridin-3-yl)-6-oxo-1,6-dihydropyridazine-3-carboxamide]",–
< 1000 nM,"CNCc1ccc(F)cc1-c1ccc([C@@H](C)NC(=O)c2ccc(=O)n(-c3cccnc3F)n2)s1 [Example 288, N-[(1R)-1-[5-[5-fluoro-2-(methylaminomethyl)phenyl]-2-thienyl]ethyl]-1-(2-fluoro-3-pyridyl)-6-oxo-pyridazine-3-carboxamide]",–
< 1000 nM,"C[C@@H](NC(=O)c1nn(-c2ccccc2F)c(=O)cc1NS(C)(=O)=O)c1cc(N)cc(C(F)(F)F)c1 [Example 384, N-[(1R)-1-[3-amino-5-(trifluoromethyl)phenyl]ethyl]-1-(2-fluorophenyl)-4-(methanesulfonamido)-6-oxo-pyridazine-3-carboxamide]",–
< 1000 nM,"COCCNC(=O)c1cccc(-n2nc(C(=O)N[C@H](C)c3cc(N)cc(C(F)(F)F)c3)ccc2=O)c1F [Example 232, (R)-N-(1-(3-amino-5-(trifluoromethyl)phenyl)ethyl)-1-(2-fluoro-3-((2-methoxyethyl)carbamoyl)phenyl)-6-oxo-1,6-dihydropyridazine-3-carboxamide]",–
< 1000 nM,"C[C@@H](NC(=O)c1ccc(=O)n(-c2cccc(C(=O)OC(C)(C)C)c2)n1)c1cc(N)cc(C(F)(F)F)c1 [Example 248, Tert-butyl 3-[3-[[(1R)-1-[3-amino-5-(trifluoromethyl)phenyl]ethyl]carbamoyl]-6-oxo-pyridazin-1-yl]benzoate]",–
< 1000 nM,"C[C@@H](NC(=O)c1ccc(=O)n(-c2cccc(-c3nncn3C)c2)c1)c1cc(N)cc(C(F)(F)F)c1 [Example 348, N-[(1R)-1-[3-amino-5-(trifluoromethyl)phenyl]ethyl]-1-[3-(4-methyl-1,2,4-triazol-3-yl)phenyl]-6-oxo-pyridine-3-carboxamide]",–
< 1000 nM,"C[C@@H](NC(=O)c1ccc(=O)n(-c2cccc(-c3cnn(C)c3)c2)n1)c1cc(N)cc(C(F)(F)F)c1 [Example 334, N-[(1R)-1-[3-amino-5-(trifluoromethyl)phenyl]ethyl]-1-[3-(1-methylpyrazol-4-yl)phenyl]-6-oxo-pyridazine-3-carboxamide]",–
< 1000 nM,"CNCc1ccccc1-c1csc([C@@H](C)NC(=O)c2ccc(=O)n(-c3ccccc3F)n2)c1 [Example 267, 1-(2-fluorophenyl)-N-[(1R)-1-[4-[2-(methylaminomethyl)phenyl]-2-thienyl]ethyl]-6-oxo-pyridazine-3-carboxamide]",–
1000 to 10000 nM,"C[C@@H](NC(=O)c1ccc(=O)n(-c2cccc(-c3ncco3)c2)n1)c1cc(N)cc(C(F)(F)F)c1 [Example 239, N-[(1R)-1-[3-amino-5-(trifluoromethyl)phenyl]ethyl]-1-[3-(1,3-oxazol-2-yl)phenyl]-6-oxo-1,6-dihydropyridazine-3-carboxamide]",–
< 1000 nM,"Cc1nc(-n2nc(C(=O)N[C@H](C)c3cc(N)cc(C(F)(F)F)c3)ccc2=O)cs1 [Example 386, N-[(1R)-1-[3-amino-5-(trifluoromethyl)phenyl]ethyl]-1-(2-methylthiazol-4-yl)-6-oxo-pyridazine-3-carboxamide]",–
< 1000 nM,"C[C@@H](NC(=O)c1ccc(=O)n(-c2cccc(C(=O)N3CCCC3)c2)n1)c1cccc(C(F)(F)CO)c1F [Example 194, N-[(1R)-1-[3-(1,1-difluoro-2-hydroxy-ethyl)-2-fluoro-phenyl]ethyl]-6-oxo-1-[3-(pyrrolidine-1-carbonyl)phenyl]pyridazine-3-carboxamide]",–
< 1000 nM,"C[C@@H](NC(=O)c1ccc(=O)n(-c2cccc(C(=O)N3CCOCC3)c2F)n1)c1cc(N)cc(C(F)(F)F)c1 [Example 233, (R)-N-(1-(3-amino-5-(trifluoromethyl)phenyl)ethyl)-1-(2-fluoro-3-(morpholine-4-carbonyl)phenyl)-6-oxo-1,6-dihydropyridazine-3-carboxamide]",–
< 1000 nM,"CNCc1ccccc1-c1ccc([C@@H](C)NC(=O)c2ccc(=O)n(-c3ccccc3F)n2)s1 [Example 298, 1-(2-fluorophenyl)-N-[(1R)-1-[5-[2-(methylaminomethyl)phenyl]-2-thienyl]ethyl]-6-oxo-pyridazine-3-carboxamide]",–
< 1000 nM,"CNCc1ccccc1-c1ccc([C@@H](C)NC(=O)c2nn(-c3ccccc3F)c(=O)c3cc[nH]c23)s1 [Example 268, 5-(2-fluorophenyl)-N-[(1R)-1-[5-[2-(methylaminomethyl)phenyl]-2-thienyl]ethyl]-4-oxo-1H-pyrrolo[2,3-d]pyridazine-7-carboxamide]",–
< 1000 nM,"COCc1cccc(-n2nc(C(=O)N[C@H](C)c3cc(N)cc(C(F)(F)F)c3)ccc2=O)c1 [Example 205, N-[(1R)-1-[3-amino-5-(trifluoromethyl)phenyl]ethyl]-1-[3-(methoxymethyl)phenyl]-6-oxo-pyridazine-3-carboxamide]",–
> 10000 nM,"C[C@H](NC(=O)c1ccc(=O)n(-c2ccccc2F)n1)c1cc(N)cc(C(F)(F)F)n1 [Example 394, N-[(1S)-1-[4-amino-6-(trifluoromethyl)-2-pyridyl]ethyl]-1-(2-fluorophenyl)-6-oxo-pyridazine-3-carboxamide]",–
–,N-[(1R)-1-[3-amino-5-(trifluoromethyl)phenyl]ethyl]-1-(3-isoxazol-4-ylphenyl)-6-oxo-pyridazine-3-carboxamide [Example 322],< 1000 nM
> 10000 nM,"C[C@@H](NC(=O)c1ccc(=O)n(-c2ccccc2F)n1)c1cccc(-n2ccccc2=O)c1 [Example 303, 1-(2-fluorophenyl)-6-oxo-N-[(1R)-1-[3-(2-oxo-1-pyridyl)phenyl]ethyl]pyridazine-3-carboxamide]",–
